Test results from US7432400B2, “Biphenylene compounds” (Ciba Specialty Chemicals Corp., priority 2001, dated 2008).
Values joined by “and” are separate entries in the source; they are usually repeats but may differ in a detail not shown here. Identical values can stand only once.

Experiments:
[1] = UV absorption (λmax) of the biphenyl compounds as UV filters; format: physicochemical; settings: measured in acetonitrile 98/water 2
From the text: By way of example, the following Table lists a number of biphenyl compounds according to the invention together with their λmax values (measured in acetonitrile 98/water 2).

[2] = as above; format: physicochemical

O=C1CCCCC/C1=C\c1ccc(-c2ccc(/C=C3\CCCCCC3=O)cc2)cc1 [Example 6]
λmax [nm] [1]: 337 nm

O=C(/C(=C/c1ccc(-c2ccc(/C=C(/C(=O)c3ccccc3)c3ccccc3)cc2)cc1)c1ccccc1)c1ccccc1 [Example 9]
λmax [nm] [1]: 326 nm

O=C1CCCCCC/C1=C\c1ccc(-c2ccc(/C=C3\CCCCCCC3=O)cc2)cc1 [Example 7]
λmax [nm] [1]: 315 nm

CC(C)(C)C1CCC(=O)/C(=C/c2ccc(-c3ccc(/C=C4\CC(C(C)(C)C)CCC4=O)cc3)cc2)C1 (centres unmarked) [Example 1]
λmax [nm] [1]: 357 nm

O=C1OCCCC/C1=C\c1ccc(-c2ccc(/C=C3\CCCCOC3=O)cc2)cc1 [Example 10]
λmax [nm] [1]: 361 nm

COc1ccc2c(c1)CC/C(=C\c1ccc(-c3ccc(/C=C4\CCc5cc(OC)ccc5C4=O)cc3)cc1)C2=O [Example 3]
λmax [nm] [1]: 351 nm

CCCCCCC1CC/C(=C\c2ccc(-c3ccc(/C=C4\CCC(CCCCCC)C4=O)cc3)cc2)C1=O (centres unmarked) [Example 4]
λmax [nm] [1]: 282 nm

O=C1/C(=C/c2ccc(-c3ccc(/C=C4/C(=O)C5CCN4CC5)cc3)cc2)N2CCC1CC2 [Example 13]
λmax (dioxane) ([2]; in dioxane): 235 nm and 350 nm

O=C1/C(=C/c2ccc(-c3ccc(/C=C4\CCc5ccccc5C4=O)cc3)cc2)CCc2ccccc21 [Example 2]
λmax [nm] [1]: 351 nm

CC(=O)/C(=C\c1ccc(-c2ccc(/C=C(\C(C)=O)C(=O)OC(C)(C)C)cc2)cc1)C(=O)OC(C)(C)C [Example 11]
λmax [nm] [1]: 345 nm

O=C1NC(=O)C(=Cc2ccc(-c3ccc(C=C4C(=O)NC(=O)NC4=O)cc3)cc2)C(=O)N1 [Example 15]
λmax (DMSO) ([2]; in DMSO): 396 nm
E (1%, 1 cm) ([2]; in DMSO, at λmax 396 nm): 1134

O=C(/C=C/c1ccc(-c2ccc(/C=C/C(=O)c3ccc(F)cc3)cc2)cc1)c1ccc(F)cc1 [Example 5]
λmax [nm] [1]: 358 nm

C/C(=C\c1ccc(-c2ccc(/C=C(\C)C(=O)c3ccccc3)cc2)cc1)C(=O)c1ccccc1 [Example 8]
λmax [nm] [1]: 326 nm
